# From patent US20230074545A1, “TREATMENT OF CANCER WITH CDK12/13 INHIBITORS” (Kinnate Biopharma Inc., priority 2019, published 2023)
# Key:
# Experiment in all cases: Radiometric kinase panel
# Format in all cases: biochemical
# AXL = target: T1, AXL (Homo sapiens, UniProt P30530)
# T1 construct: either as full-length or enzymatically active fragments; purchased ProQinase GmbH (Reaction Biology)
# Procedure, shortened: (§1)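 Activity was measured radiometrically from [gamma-33P]-ATP incorporation into substrate. The kinases were recombinant human GST- or His-tagged proteins, full-length or active fragments, expressed in Sf9 or E. coli. Compound in 10% DMSO was added before the enzyme/substrate mix, which started the reaction.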
# BLK = target: T2, BLK (Homo sapiens, UniProt P51451)
# T2 construct: purchased ProQinase GmbH (Reaction Biology)
# Procedure, shortened: as §1
# BMX = target: T3, BMX (Homo sapiens, UniProt P51813)
# T3 construct: either as full-length or enzymatically active fragments; purchased ProQinase GmbH (Reaction Biology)
# Procedure, shortened: as §1
# CAMK2A = target: T4, CAMK2A (Homo sapiens, UniProt Q9UQM7)
# T4 construct: either as full-length or enzymatically active fragments; purchased ProQinase GmbH (Reaction Biology)
# Procedure, shortened: as §1
# CAMKID = target: T5, CAMKID (Homo sapiens, UniProt Q8IU85)
# T5 construct: purchased ProQinase GmbH (Reaction Biology)
# Procedure, shortened: as §1
# CDK2/CycD1 = target: T6, CDK2/CycD1 (Homo sapiens, UniProt P24941)
# T6 construct: either as full-length or enzymatically active fragments; purchased ProQinase GmbH (Reaction Biology)
# Procedure, shortened: as §1
# CDK20/CycH = target: T7, CDK20/CycH (Homo sapiens, UniProt Q8IZL9)
# T7 construct: purchased ProQinase GmbH (Reaction Biology)
# Procedure, shortened: as §1
# CDK20/CycT1 = target: T8, CDK20/CycT1 (Homo sapiens, UniProt Q8IZL9)
# T8 construct: either as full-length or enzymatically active fragments; purchased ProQinase GmbH (Reaction Biology)
# Procedure, shortened: as §1
# CDK3/CycE1 = target: T9, CDK3/CycE1 (Homo sapiens, UniProt Q00526)
# T9 construct: either as full-length or enzymatically active fragments; purchased ProQinase GmbH (Reaction Biology)
# Procedure, shortened: as §1
# CDK4/CycD3 = target: T10, CDK4/CycD3 (Homo sapiens, UniProt P11802)
# T10 construct: either as full-length or enzymatically active fragments; purchased ProQinase GmbH (Reaction Biology); host or cells: Sf9 insect cells or E. coli (not specified per kinase)
# Procedure, shortened: as §1
# CDK5/p35NCK = target: T11, CDK5/p35NCK (Homo sapiens, UniProt Q00535)
# T11 construct: either as full-length or enzymatically active fragments; purchased ProQinase GmbH (Reaction Biology)
# Procedure, shortened: as §1
# CHK2 = target: T12, CHK2 (Homo sapiens, UniProt O96017)
# T12 construct: either as full-length or enzymatically active fragments; purchased ProQinase GmbH (Reaction Biology)
# Procedure, shortened: as §1
# CK2alpha2 = target: T13, CK2alpha2 (Homo sapiens, UniProt P19784)
# T13 construct: either as full-length or enzymatically active fragments; purchased ProQinase GmbH (Reaction Biology)
# Procedure, shortened: as §1
# DYRK1B = target: T14, DYRK1B (Homo sapiens, UniProt Q9Y463)
# T14 construct: either as full-length or enzymatically active fragments; purchased ProQinase GmbH (Reaction Biology)
# Procedure, shortened: as §1
# DYRK4 = target: T15, DYRK4 (Homo sapiens, UniProt Q9NR20)
# T15 construct: either as full-length or enzymatically active fragments; purchased ProQinase GmbH (Reaction Biology)
# Procedure, shortened: as §1
# EPHB4 = target: T16, EPHB4 (Homo sapiens, UniProt P54760)
# T16 construct: either as full-length or enzymatically active fragments; purchased ProQinase GmbH (Reaction Biology)
# Procedure, shortened: as §1
# ERK7 = target: T17, ERK7 (Homo sapiens, UniProt Q8TD08)
# T17 construct: either as full-length or enzymatically active fragments; purchased ProQinase GmbH (Reaction Biology)
# Procedure, shortened: as §1
# GSK3beta = target: T18, GSK3beta (Homo sapiens, UniProt P49841)
# T18 construct: either as full-length or enzymatically active fragments; purchased ProQinase GmbH (Reaction Biology)
# Procedure, shortened: as §1
# IKKalpha = target: T19, IKKalpha (Homo sapiens, UniProt O15111)
# T19 construct: either as full-length or enzymatically active fragments; purchased ProQinase GmbH (Reaction Biology)
# Procedure, shortened: as §1
# JAK1 = target: T20, JAK1 (Homo sapiens, UniProt P23458)
# T20 construct: purchased ProQinase GmbH (Reaction Biology)
# Procedure, shortened: as §1
# JAK3 = target: T21, JAK3 (Homo sapiens, UniProt P52333)
# T21 construct: purchased ProQinase GmbH (Reaction Biology)
# Procedure, shortened: as §1
# MAP4K2 = target: T22, MAP4K2 (Homo sapiens, UniProt Q12851)
# T22 construct: purchased ProQinase GmbH (Reaction Biology)
# Procedure, shortened: as §1
# MATK = target: T23, MATK (Homo sapiens, UniProt P42679)
# T23 construct: purchased ProQinase GmbH (Reaction Biology)
# Procedure, shortened: as §1
# MEK5 = target: T24, MEK5 (Homo sapiens, UniProt Q13163)
# T24 construct: either as full-length or enzymatically active fragments; purchased ProQinase GmbH (Reaction Biology)
# Procedure, shortened: as §1
# MYLK = target: T25, MYLK (Homo sapiens, UniProt Q15746)
# T25 construct: either as full-length or enzymatically active fragments; purchased ProQinase GmbH (Reaction Biology)
# Procedure, shortened: as §1
# PDGFRbeta = target: T26, PDGFRbeta (Homo sapiens, UniProt P09619)
# T26 construct: either as full-length or enzymatically active fragments; purchased ProQinase GmbH (Reaction Biology)
# Procedure, shortened: as §1
# PIM2 = target: T27, PIM2 (Homo sapiens, UniProt Q9P1W9)
# T27 construct: either as full-length or enzymatically active fragments; purchased ProQinase GmbH (Reaction Biology)
# Procedure, shortened: as §1
# RPS6KA5 = target: T28, RPS6KA5 (Homo sapiens, UniProt O75582)
# T28 construct: either as full-length or enzymatically active fragments; purchased ProQinase GmbH (Reaction Biology); host or cells: Sf9 insect cells or E. coli (not specified per kinase)
# Procedure, shortened: as §1
# SGK1 = target: T29, SGK1 (Homo sapiens, UniProt O00141)
# T29 construct: purchased ProQinase GmbH (Reaction Biology)
# Procedure, shortened: as §1
# TTBK1 = target: T30, TTBK1 (Homo sapiens, UniProt Q5TCY1)
# T30 construct: either as full-length or enzymatically active fragments; purchased ProQinase GmbH (Reaction Biology)
# Procedure, shortened: as §1
# TTBK2 = target: T31, TTBK2 (Homo sapiens, UniProt Q6IQ55)
# T31 construct: either as full-length or enzymatically active fragments; purchased ProQinase GmbH (Reaction Biology)
# Procedure, shortened: as §1
# WEE1 = target: T32, WEE1 (Homo sapiens, UniProt P30291)
# T32 construct: either as full-length or enzymatically active fragments; purchased ProQinase GmbH (Reaction Biology)
# Procedure, shortened: as §1
# T3 sequence (P51813 whole entry, the tested form may be a part): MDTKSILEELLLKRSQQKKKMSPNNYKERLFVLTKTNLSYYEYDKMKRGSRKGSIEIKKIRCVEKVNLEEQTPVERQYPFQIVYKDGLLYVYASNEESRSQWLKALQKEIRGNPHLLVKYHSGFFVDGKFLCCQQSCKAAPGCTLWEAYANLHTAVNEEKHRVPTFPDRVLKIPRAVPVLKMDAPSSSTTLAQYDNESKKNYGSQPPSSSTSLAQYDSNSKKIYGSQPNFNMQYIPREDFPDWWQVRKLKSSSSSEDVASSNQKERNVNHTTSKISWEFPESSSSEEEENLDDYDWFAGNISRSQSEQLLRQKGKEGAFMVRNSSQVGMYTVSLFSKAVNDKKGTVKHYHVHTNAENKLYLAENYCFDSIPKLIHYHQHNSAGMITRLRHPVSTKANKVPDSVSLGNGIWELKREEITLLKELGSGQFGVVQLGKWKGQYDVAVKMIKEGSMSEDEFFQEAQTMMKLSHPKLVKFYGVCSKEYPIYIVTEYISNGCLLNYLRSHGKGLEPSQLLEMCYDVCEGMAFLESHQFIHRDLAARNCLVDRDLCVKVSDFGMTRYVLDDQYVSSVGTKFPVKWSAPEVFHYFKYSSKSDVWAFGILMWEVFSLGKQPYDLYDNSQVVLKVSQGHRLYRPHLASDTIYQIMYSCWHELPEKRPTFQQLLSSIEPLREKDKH
# T15 sequence (Q9NR20 whole entry, the tested form may be a part): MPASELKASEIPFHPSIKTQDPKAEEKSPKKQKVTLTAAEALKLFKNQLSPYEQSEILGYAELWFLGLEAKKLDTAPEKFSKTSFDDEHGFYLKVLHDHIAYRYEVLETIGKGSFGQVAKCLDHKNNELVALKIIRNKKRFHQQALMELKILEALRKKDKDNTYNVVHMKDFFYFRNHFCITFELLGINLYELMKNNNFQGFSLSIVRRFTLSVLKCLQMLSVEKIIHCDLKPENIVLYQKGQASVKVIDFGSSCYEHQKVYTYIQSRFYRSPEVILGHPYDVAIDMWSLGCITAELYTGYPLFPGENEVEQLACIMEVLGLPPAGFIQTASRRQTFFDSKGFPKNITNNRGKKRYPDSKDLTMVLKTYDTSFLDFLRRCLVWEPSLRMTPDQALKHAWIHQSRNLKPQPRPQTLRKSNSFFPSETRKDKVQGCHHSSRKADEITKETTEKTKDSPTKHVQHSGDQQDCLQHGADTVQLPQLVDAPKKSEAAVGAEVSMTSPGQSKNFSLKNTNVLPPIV
# T16 sequence (P54760 16-987): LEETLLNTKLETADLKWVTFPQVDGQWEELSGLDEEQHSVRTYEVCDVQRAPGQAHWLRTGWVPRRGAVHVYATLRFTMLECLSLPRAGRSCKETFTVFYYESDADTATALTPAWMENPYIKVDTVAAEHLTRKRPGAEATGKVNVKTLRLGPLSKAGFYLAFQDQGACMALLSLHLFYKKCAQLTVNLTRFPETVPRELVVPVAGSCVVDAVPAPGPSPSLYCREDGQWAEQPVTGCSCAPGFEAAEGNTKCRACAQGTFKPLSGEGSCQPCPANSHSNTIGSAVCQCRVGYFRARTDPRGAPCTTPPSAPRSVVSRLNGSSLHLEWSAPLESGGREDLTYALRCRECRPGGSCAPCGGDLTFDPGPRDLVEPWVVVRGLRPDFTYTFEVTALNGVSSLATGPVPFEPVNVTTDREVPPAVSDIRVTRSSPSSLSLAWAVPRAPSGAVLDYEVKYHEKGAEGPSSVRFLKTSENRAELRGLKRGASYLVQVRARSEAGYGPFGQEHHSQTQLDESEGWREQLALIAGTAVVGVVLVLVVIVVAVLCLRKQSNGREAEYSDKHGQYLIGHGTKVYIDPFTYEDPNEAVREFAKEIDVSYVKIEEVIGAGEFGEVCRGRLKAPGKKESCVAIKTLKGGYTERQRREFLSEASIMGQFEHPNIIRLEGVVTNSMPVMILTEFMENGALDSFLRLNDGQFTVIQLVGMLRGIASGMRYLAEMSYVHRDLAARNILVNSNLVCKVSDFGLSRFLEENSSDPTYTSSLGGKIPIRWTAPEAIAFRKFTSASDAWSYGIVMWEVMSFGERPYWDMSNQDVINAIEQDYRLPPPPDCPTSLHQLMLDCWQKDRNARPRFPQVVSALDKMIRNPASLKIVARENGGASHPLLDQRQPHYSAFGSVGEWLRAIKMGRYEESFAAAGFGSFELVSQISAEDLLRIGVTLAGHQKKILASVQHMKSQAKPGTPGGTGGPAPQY
# T32 sequence (P30291 whole entry, the tested form may be a part): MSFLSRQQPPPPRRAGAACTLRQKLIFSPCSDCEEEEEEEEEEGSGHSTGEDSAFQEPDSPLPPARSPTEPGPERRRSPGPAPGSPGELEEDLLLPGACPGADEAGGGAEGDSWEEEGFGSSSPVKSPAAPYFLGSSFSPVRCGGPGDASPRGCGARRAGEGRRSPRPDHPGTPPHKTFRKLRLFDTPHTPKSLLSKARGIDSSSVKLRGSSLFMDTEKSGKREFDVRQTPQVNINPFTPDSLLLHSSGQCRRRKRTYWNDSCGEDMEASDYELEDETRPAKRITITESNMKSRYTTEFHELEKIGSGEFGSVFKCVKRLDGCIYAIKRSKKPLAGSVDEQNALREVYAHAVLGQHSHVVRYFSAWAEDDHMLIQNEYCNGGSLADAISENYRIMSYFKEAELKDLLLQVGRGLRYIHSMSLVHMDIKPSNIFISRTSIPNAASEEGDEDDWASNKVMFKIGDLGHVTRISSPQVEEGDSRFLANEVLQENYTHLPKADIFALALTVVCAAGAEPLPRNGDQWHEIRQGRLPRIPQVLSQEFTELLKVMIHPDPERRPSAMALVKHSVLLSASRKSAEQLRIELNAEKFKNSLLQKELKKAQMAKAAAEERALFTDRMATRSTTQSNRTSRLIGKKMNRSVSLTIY
# T23 sequence (P42679 whole entry): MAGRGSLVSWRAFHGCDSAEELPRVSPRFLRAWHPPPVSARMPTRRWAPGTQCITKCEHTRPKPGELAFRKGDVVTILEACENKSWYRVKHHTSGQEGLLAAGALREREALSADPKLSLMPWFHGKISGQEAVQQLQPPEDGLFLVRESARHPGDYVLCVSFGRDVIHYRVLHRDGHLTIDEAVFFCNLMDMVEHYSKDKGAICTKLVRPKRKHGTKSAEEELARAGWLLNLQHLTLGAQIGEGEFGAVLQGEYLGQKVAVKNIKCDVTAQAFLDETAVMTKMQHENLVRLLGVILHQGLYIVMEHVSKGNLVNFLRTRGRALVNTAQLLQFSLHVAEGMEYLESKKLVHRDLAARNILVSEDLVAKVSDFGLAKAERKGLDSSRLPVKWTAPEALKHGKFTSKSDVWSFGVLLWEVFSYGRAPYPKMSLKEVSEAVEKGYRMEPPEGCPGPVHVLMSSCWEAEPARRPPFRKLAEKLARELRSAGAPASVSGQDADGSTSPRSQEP
# T20 sequence (P23458 whole entry): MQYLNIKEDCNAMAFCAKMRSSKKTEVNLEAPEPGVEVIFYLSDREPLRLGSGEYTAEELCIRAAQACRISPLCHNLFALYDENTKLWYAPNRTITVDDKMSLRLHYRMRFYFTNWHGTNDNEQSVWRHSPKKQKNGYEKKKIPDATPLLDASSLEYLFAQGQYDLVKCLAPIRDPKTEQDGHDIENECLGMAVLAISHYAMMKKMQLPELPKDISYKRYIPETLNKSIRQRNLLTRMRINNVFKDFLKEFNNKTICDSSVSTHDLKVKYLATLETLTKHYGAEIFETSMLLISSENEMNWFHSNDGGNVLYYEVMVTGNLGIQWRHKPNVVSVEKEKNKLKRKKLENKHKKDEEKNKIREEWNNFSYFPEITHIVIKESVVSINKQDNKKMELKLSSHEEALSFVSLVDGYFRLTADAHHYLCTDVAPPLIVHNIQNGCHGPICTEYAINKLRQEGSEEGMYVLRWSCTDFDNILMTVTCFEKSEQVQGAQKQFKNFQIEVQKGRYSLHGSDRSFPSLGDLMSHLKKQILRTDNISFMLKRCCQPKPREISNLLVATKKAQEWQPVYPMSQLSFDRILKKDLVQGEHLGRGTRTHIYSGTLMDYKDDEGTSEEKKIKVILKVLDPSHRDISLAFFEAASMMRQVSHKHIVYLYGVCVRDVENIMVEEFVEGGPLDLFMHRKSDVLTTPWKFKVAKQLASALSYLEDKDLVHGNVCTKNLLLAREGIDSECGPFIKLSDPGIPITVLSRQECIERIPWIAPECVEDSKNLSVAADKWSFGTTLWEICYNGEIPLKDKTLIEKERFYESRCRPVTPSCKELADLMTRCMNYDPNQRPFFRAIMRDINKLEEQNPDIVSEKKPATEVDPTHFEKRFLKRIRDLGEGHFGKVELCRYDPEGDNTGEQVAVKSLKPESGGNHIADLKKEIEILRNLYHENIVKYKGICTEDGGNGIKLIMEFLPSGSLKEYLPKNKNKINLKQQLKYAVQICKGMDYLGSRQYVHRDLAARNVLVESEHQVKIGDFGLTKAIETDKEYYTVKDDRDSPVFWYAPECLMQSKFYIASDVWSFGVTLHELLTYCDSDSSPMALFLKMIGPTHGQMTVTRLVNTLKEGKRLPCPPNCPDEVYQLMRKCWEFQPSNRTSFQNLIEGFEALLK
# T24 sequence (Q13163 whole entry, the tested form may be a part): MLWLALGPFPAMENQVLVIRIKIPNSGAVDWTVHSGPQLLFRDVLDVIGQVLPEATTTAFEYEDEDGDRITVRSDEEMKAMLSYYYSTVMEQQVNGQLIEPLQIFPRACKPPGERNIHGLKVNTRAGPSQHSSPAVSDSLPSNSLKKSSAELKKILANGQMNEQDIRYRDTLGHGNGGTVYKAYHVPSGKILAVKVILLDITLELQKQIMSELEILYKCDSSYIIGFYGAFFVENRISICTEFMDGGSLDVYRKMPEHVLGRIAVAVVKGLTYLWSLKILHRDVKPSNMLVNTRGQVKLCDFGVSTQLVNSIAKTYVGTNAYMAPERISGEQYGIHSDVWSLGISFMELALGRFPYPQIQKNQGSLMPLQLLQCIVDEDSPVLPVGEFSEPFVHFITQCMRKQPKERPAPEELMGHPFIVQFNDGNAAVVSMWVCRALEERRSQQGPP
smiles,measurement,setting,value
"C=CC(=O)Nc1ccc(C(=O)N2CC[C@@H](Nc3ncc(C#N)cn3)C2)cc1 [Compound 4, (R)-N-(4-(3-((5-cyanopyrimidin-2-yl)amino)pyrrolidine-1-carbonyl)phenyl)acrylamide]",inhibition at 1 µM,AXL,3%
same,inhibition at 1 µM,BLK,-2%
same,inhibition at 1 µM,BMX,-4%
same,inhibition at 1 µM,CAMK2A,-9%
same,inhibition at 1 µM,CAMKID,0%
same,inhibition at 1 µM,CDK2/CycD1,18%
same,inhibition at 1 µM,CDK20/CycH,-2%
same,inhibition at 1 µM,CDK20/CycT1,5%
same,inhibition at 1 µM,CDK3/CycE1,25%
same,inhibition at 1 µM,CDK4/CycD3,10%
same,inhibition at 1 µM,CDK5/p35NCK,23%
same,inhibition at 1 µM,CHK2,5%
same,inhibition at 1 µM,CK2alpha2,-14%
same,inhibition at 1 µM,DYRK1B,3%
same,inhibition at 1 µM,DYRK4,-7%
same,inhibition at 1 µM,EPHB4,-4%
same,inhibition at 1 µM,ERK7,17%
same,inhibition at 1 µM,GSK3beta,8%
same,inhibition at 1 µM,IKKalpha,-8%
same,inhibition at 1 µM,JAK1,-1%
same,inhibition at 1 µM,JAK3,-1%
same,inhibition at 1 µM,MAP4K2,-1%
same,inhibition at 1 µM,MATK,-3%
same,inhibition at 1 µM,MEK5,23%
same,inhibition at 1 µM,MYLK,3%
same,inhibition at 1 µM,PDGFRbeta,6%
same,inhibition at 1 µM,PIM2,3%
same,inhibition at 1 µM,RPS6KA5,10%
same,inhibition at 1 µM,SGK1,-2%
same,inhibition at 1 µM,TTBK1,-5%
same,inhibition at 1 µM,TTBK2,3%
same,inhibition at 1 µM,WEE1,-5%
